# Source: paper PMC5321741, “Arylmethylamino steroids as antiparasitic agents” (Nature Communications, 2017)
# Read-outs that look alike come from different tables or passages of the source.
# Legend:
# K-562 = experiment: antiproliferative activity on K-562 cells; assay type: cell-based; settings: Homo sapiens, K562, 72 h
# Experimental: (§1) Compounds were tested for their antiproliferative activity on HUVEC and K-562 cells and for cytotoxicity on HeLa cells using standard protocols. K-562 (DSM ACC 10), HUVEC (ATCC CRL-1730), and HeLa (DSM ACC 57) cells were cultured as described previously. To assay the antiproliferative and cytotoxic effect, procedures were carried out as described before. In brief, for each experiment with K-562 and HeLa ∼10,000 cells were seeded per well of the 96-well microplates. For the cytotoxicity assay, the HeLa cells were preincubated for 48 h without the test substances. Cells were incubated for 72 h at 37 °C in a humidified atmosphere and 5% CO2. Suspension cultures of K-562 in microplates were analysed by an electronic cell analyzer system CASY 1 (SCHÄRFE, Reutlingen, Germany). The monolayer of the HUVEC and HeLa cells were fixed by glutaraldehyde (MERCK) and stained with a 0.05% solution of methylene blue (SERVA). After gently washing, the stain was eluted by 0.2 ml of 0.33 N HCl in the wells. The optical densities were measured at 660 nm in a microplate reader. The calculations of the different values of GI50 and CC50 were performed with the software Magellan (TECAN).
# [1] = test system: P. falciparum (strain 3D7); experiment: 72 h 3H-hypoxanthine incorporation assay, asexual blood stages; assay type: cell-based, Plasmodium falciparum; settings: Plasmodium falciparum
# HUVEC = experiment: antiproliferative activity on HUVEC cells; assay type: cell-based; settings: Homo sapiens, HUVEC, 72 h
# Experimental: as §1
# [2] = cytotoxicity on HeLa cells; assay type: cell-based; settings: human, HeLa cells
# Experimental: as §1
# haem = experiment: ESI-MS collision-induced dissociation of haem adducts; assay type: binding; settings: 50 µM haem and 50 µM substrate; for DV50 (dissociation voltage at 50%) of haem adduct: ESI-CID, 20 V to 400 V; for Bottom plateau (adduct remaining at 400 V): fragmentor voltage 400 V
# Experimental: Compound Molar Adduct DV50 Bottom Dissociation mass [Haem+S] (V) plateau Constant
# Supplementary Table 7. ESI-MS-CID data (m/z, calculated DV50 = dissociation voltage at 50% and % bottom plateau) of the [haematin-drug]+ adducts and dissociation constants (KD, µM) of the haematin-drug complexes measured with absorption spectrophotometric titrations.
# Conditions: 50 µM haem and 50 µM substrate in H2O/CH3CN (5/95) + 0.1% formic acid.
# Stability responses of the haem substrate adduct were obtained via ESI-CID experiments.
# Positive mode; fragmentor voltage from 20 V to 400 V with 20 V increments. […]
# - 41/120 g), and complete dissolution was achieved using an ultrasonic bath. All solutions were protected from daylight to avoid any photochemical degradation. All the physiochemical measurements were carried out at 25.0(2) °C. […]
# Electrospray mass spectrometric measurements stopping point
# Electrospray mass spectra of the haem complexes were obtained with an Agilent Technologies 6120 quadrupole equipped with an electrospray (ESI) interface. For
# [3] = 3D7, 72 h 3H-hypoxanthine incorporation, asexual blood stages, read-out: Antiplasmodial activity IC50 Pf (3D7)
# [4] = 3D7, non-steroid-derived analogs, read-out: IC50 on P. falciparum 3D7 asexual blood stages
smiles,measurement,setting,value
COc1ccc2c(c1)CCC1C2CC[C@]2(C)C1CC(NCc1ccccc1O)[C@@H]2O (stereo partly shown) [9c],GI50,K-562,8.4 µM
same,IC50,[1]; [3],0.999 µM
same,GI50,HUVEC,11.2 µM
same,CC50 at 72 h,[2],48.8 µM
COc1ccc2c(c1)CCC1C2CC[C@@]2(C)C1CC[C@@H]2/N=C/c1cc2ccccc2cc1O (stereo partly shown) [2n],IC50,[1]; [3],5.54 µM
COc1ccc2c(c1)CCC1C2CC[C@@]2(C)C1CC[C@@H]2NCc1cc(Cl)ccc1O (stereo partly shown) [2s],IC50,[1]; [3],0.062 µM
COc1ccc2c(c1)CCC1C2CC[C@]2(C)C[C@@H](NCc3ccccc3O)CC12 (stereo partly shown) [4c],GI50,K-562,2.6 µM
same,IC50,[1]; [3],0.063 µM
same,GI50,HUVEC,3.1 µM
same,CC50 at 72 h,[2],12 µM
COc1ccc2c(c1)CCC1C2CC[C@@]2(C)C1C[C@@H](NCc1ccccc1O)[C@H]2O (stereo partly shown) [5c],GI50,K-562,2 µM
same,IC50,[1]; [3],0.16 µM
same,GI50,HUVEC,2.2 µM
same,CC50 at 72 h,[2],11.3 µM
COc1ccc2c(c1)CCC1C2CC[C@]2(C)C[C@H](NCc3ccccc3O)CC12 (stereo partly shown) [3c],GI50,K-562,3.8 µM
same,IC50,[1]; [3],0.042 µM
same,GI50,HUVEC,4.1 µM
same,CC50 at 72 h,[2],20.7 µM
COc1ccc2c(c1)CCC1C2CC[C@@]2(C)C1CC[C@@H]2NCc1c(O)ccc2ccccc12 (stereo partly shown) [2m],IC50,[1]; [3],0.183 µM
COc1ccc2c(c1)CCC1C2CC[C@@]2(C)C1C[C@@H](NCc1cc(Cl)ccc1O)[C@H]2O (stereo partly shown) [5s],IC50,[1]; [3],0.099 µM
COc1ccc2c(c1)CCC1C2CC[C@@]2(C)C1CC[C@H]2/N=C/c1ccccc1O (stereo partly shown) [1b],IC50,[1]; [3],> 2.5 µM
COc1ccc2c(c1)CCC1C2CC[C@@]2(C)C1C[C@@H](NCc1cc(Cl)ccc1O)[C@@H]2O (stereo partly shown) [7s],IC50,[1]; [3],0.055 µM
CC(C)CCC[C@@H](C)[C@H]1CCC2C3CCC4C[C@@H](O)[C@@H](O)[C@H](NCc5ccccc5O)[C@]4(C)C3CC[C@@]21C (stereo partly shown) [12c],GI50,K-562,16.5 µM
same,IC50,[1]; [3],4.36 µM
same,GI50,HUVEC,12.4 µM
same,CC50 at 72 h,[2],38 µM
COc1ccc2c(c1)CCC1C2CC[C@@]2(C)C1C[C@H](NCc1cc(C(C)(C)C)cc(C(C)(C)C)c1O)[C@H]2O (stereo partly shown) [6w],IC50,[1]; [3],1.62 µM
COc1ccc(CNC2CCC3C4CCc5cc(OC)ccc5C4CCC23C)cc1 (stereo not shown) [1k],IC50,[1]; [3],1.01 µM
COc1ccc2c(c1)CCC1C2CC[C@]2(C)C[C@@H](N)CC12 (stereo partly shown) [4a],IC50,[1]; [3],> 1 µM
Oc1ccccc1CNc1ccccc1 [19c],IC50,[1]; [4],> 15 µM
COc1ccc2c(c1)CCC1C2CC[C@]2(C)C1C[C@H](NCc1ccccc1O)[C@@H]2O (stereo partly shown) [11c],GI50,K-562,0.1 µM
same,IC50,[1]; [3],0.141 µM
same,GI50,HUVEC,22 µM
same,CC50 at 72 h,[2],6.4 µM
"C=CC1=C(C)c2cc3[n-]c(cc4[n-]c(cc5nc(cc1n2)C(C)=C5C=C)c(C)c4CCC(=O)O)c(CCC(=O)O)c3C.O.[Fe+2] [hematin, reference compound]",DV50 (dissociation voltage at 50%) of haem adduct,haem,329 V
same,Bottom plateau (adduct remaining at 400 V),haem,~ 28%
Oc1ccccc1/C=N/c1ccc2ccc3cccc4ccc1c2c34 [20b],IC50,[1]; [3],> 15 µM
COc1ccc2c(c1)CCC1C2CC[C@@]2(C)C1CC[C@@H]2/N=C/c1ccccc1O (stereo partly shown) [2b],IC50,[1]; [3],> 2.5 µM
COc1ccc2c(c1)CCC1C2CC[C@@]2(C)C1CC[C@@H]2NCc1cc([N+](=O)[O-])ccc1O (stereo partly shown) [2u],IC50,[1]; [3],0.114 µM
COc1ccc2c(c1)CCC1C2CC[C@@]2(C)C1C[C@H](NCc1ccccc1O)[C@H]2O (stereo partly shown) [6c],GI50,K-562,2.5 µM
same,IC50,[1]; [3],0.676 µM
same,GI50,HUVEC,4.4 µM
same,CC50 at 72 h,[2],11.3 µM
COc1ccc2c(c1)CCC1C2CCC2(C)C(NCc3ccc(O)cc3)CCC12 (stereo not shown) [1g],IC50,[1]; [3],0.116 µM
COc1ccc2c(c1)CCC1C2CC[C@@]2(C)C1CC[C@H]2NCc1cc(Cl)ccc1O (stereo partly shown) [1s],IC50,[1]; [3],0.011 µM
COc1ccc2c(c1)CCC1C2CC[C@@]2(C)C1C[C@@H](NCc1ccccc1O)[C@@H]2O (stereo partly shown) [7c],GI50,K-562,2 µM
same,IC50,[1]; [3],0.12 µM
same,GI50,HUVEC,1.2 µM
same,CC50 at 72 h,[2],10.1 µM
COc1ccc2c(c1)CCC1C2CC[C@@]2(C)C1CC[C@@H]2NCc1cccc(O)c1 (stereo partly shown) [2e],IC50,[1]; [3],0.741 µM
Oc1cc2ccccc2cc1/C=N/c1ccc2ccc3cccc4ccc1c2c34 [20n],IC50,[1]; [3],> 13 µM
COc1ccc2c(c1)CCC1C2CCC2(C)C(NCc3cccc(O)c3)CCC12 (stereo not shown) [1e],IC50,[1]; [3],0.434 µM
Oc1ccccc1CNC1CCCCC1 [16c],IC50,[1]; [4],> 6 µM
CCN(CC)c1ccc(/C=N/[C@H]2CCC3C4CCc5cc(OC)ccc5C4CC[C@@]32C)c(O)c1 (stereo partly shown) [2p],IC50,[1]; [3],> 5 µM
Oc1ccccc1CNC12CC3CC(CC(C3)C1)C2 [18c],IC50,[1]; [4],4 µM
Oc1ccccc1CNC1CCCCCCC1 [17c],IC50,[1]; [3],2 µM
same,IC50,[1]; [4],~2 µM
COc1ccc2c(c1)CCC1C2CC[C@@]2(C)C1C[C@H](NCc1ccccc1O)[C@@H]2O (stereo partly shown) [8c],GI50,K-562,0.5 µM
same,IC50,[1]; [3],0.224 µM
same,GI50,HUVEC,2.5 µM
same,CC50 at 72 h,[2],5.9 µM
CCN(CC)c1ccc(CN[C@H]2CCC3C4CCc5cc(OC)ccc5C4CC[C@@]32C)c(O)c1 (stereo partly shown) [2q],IC50,[1]; [3],0.713 µM
COc1ccc2c(c1)CCC1C2CC[C@]2(C)C1C[C@@H](NCc1ccccc1O)[C@@H]2O (stereo partly shown) [10c],GI50,K-562,2.5 µM
same,IC50,[1]; [3],0.084 µM
same,GI50,HUVEC,2.9 µM
same,CC50 at 72 h,[2],11.5 µM
COc1ccc2c(c1)CCC1C2CC[C@@]2(C)C1CC[C@@H]2N (stereo partly shown) [2a],DV50 (dissociation voltage at 50%) of haem adduct,haem,210 V
same,Bottom plateau (adduct remaining at 400 V),haem,1.8%
same,IC50,[1]; [3],> 1 µM
"CCN(CC)Cc1cc(Nc2ccnc3cc(Cl)ccc23)ccc1O [amodiaquine, reference compound]",DV50 (dissociation voltage at 50%) of haem adduct,haem,212 V
same,Bottom plateau (adduct remaining at 400 V),haem,7%
COc1ccc2c(c1)CCC1C2CC[C@@]2(C)C1CC[C@H]2N (stereo partly shown) [1a],DV50 (dissociation voltage at 50%) of haem adduct,haem,218 V
same,Bottom plateau (adduct remaining at 400 V),haem,1.2%
same,IC50,[1]; [3],> 1 µM
Oc1ccccc1CNC1CCCC1 [15c],IC50,[1]; [4],> 6 µM
COc1ccc2c(c1)CCC1C2CC[C@]2(C)C[C@H](N)CC12 (stereo partly shown) [3a],IC50,[1]; [3],> 1 µM
Oc1cc2ccccc2cc1CNc1ccc2ccc3cccc4ccc1c2c34 [20o],IC50,[1]; [3],> 13 µM
COc1ccc2c(c1)CCC1C2CCC2(C)C(NCc3ccccc3OC)CCC12 (stereo not shown) [1i],IC50,[1]; [3],0.872 µM
COc1ccc2c(c1)CCC1C2CC[C@@]2(C)C1C[C@H](/N=C/c1ccccc1O)[C@@H]2O (stereo partly shown) [8b],IC50,[1]; [3],> 2.5 µM
